The series has as its system CCRIS mutagenicity, Ames/micronucleus/aberration tests. Kind of series: CCRIS mutagenicity studies. The text has this:
The CCRIS database contains chemical records with carcinogenicity, mutagenicity, tumor promotion, and tumor inhibition test results. It was developed by the National Cancer Institute (NCI). Data are derived from studies cited in primary journals, current awareness tools, NCI reports, and other sources. Test results have been reviewed by experts in carcinogenesis and mutagenesis.
CCRIS provides historical information from the years 1985 - 2011. It is no longer updated.
This is an archive assay for CCRIS mutagenicity studies.

Structures are written as SMILES. Activity calls are given as the source filed them. The rule behind the calls is not given here.

In the case of `CC(=O)N(O)c1ccc2c(c1)Cc1ccccc1-2`, the mutagenic call runs as follows: (Test System: AMES SALMONELLA TYPHIMURIUM, Strain/Indicator: TA98, Metabolic Activation: GUINEA PIG, LIVER, HEPATOCYTES) “active; positive”; (Test System: AMES SALMONELLA TYPHIMURIUM, Strain/Indicator: TA98, Metabolic Activation: GUINEA PIG, LIVER, S-9, Method: STANDARD PLATE) “active; positive”; (Test System: AMES SALMONELLA TYPHIMURIUM, Strain/Indicator: TA98, Metabolic Activation: HAMSTER, LIVER, HEPATOCYTES) “active; positive”; (Test System: AMES SALMONELLA TYPHIMURIUM, Strain/Indicator: TA98, Metabolic Activation: HAMSTER, LIVER, S-9, Method: STANDARD PLATE) “active; positive”; (Test System: AMES SALMONELLA TYPHIMURIUM, Strain/Indicator: TA98, Metabolic Activation: HUMAN, FETAL LIVER, S-9) “active; positive”; (Test System: AMES SALMONELLA TYPHIMURIUM, Strain/Indicator: TA98, Metabolic Activation: MOUSE, LIVER, HEPATOCYTES) “active; positive”. The mutagenic call (Test System: AMES SALMONELLA TYPHIMURIUM, Strain/Indicator: TA98, Metabolic Activation: MOUSE, LIVER, S-9, Method: STANDARD PLATE) is “active; positive”; the mutagenic call (Test System: AMES SALMONELLA TYPHIMURIUM, Strain/Indicator: TA98, Metabolic Activation: NONE, Method: STANDARD PLATE) is “active; positive”; the mutagenic call (Test System: AMES SALMONELLA TYPHIMURIUM, Strain/Indicator: TA98, Metabolic Activation: RABBIT, LIVER, MICROSOMAL FRACTION, Method: STANDARD PLATE) was “active; positive”; the mutagenic call (Test System: AMES SALMONELLA TYPHIMURIUM, Strain/Indicator: TA98, Metabolic Activation: RABBIT, LUNG, MICROSOMAL FRACTION, Method: STANDARD PLATE) was “active; positive”; the mutagenic call (Test System: AMES SALMONELLA TYPHIMURIUM, Strain/Indicator: TA98, Metabolic Activation: RAT, LIVER, HEPATOCYTES) was “active; positive”; the mutagenic call (Test System: AMES SALMONELLA TYPHIMURIUM, Strain/Indicator: TA98, Metabolic Activation: RAT, LIVER, S-9, AROCLOR 1254, Method: STANDARD PLATE) is “active; positive”. In addition, the mutagenic call (Test System: AMES SALMONELLA TYPHIMURIUM, Strain/Indicator: TA98, Metabolic Activation: RAT, LIVER, S-9, Method: STANDARD PLATE) was “active; positive”; the mutagenic call (Test System: AMES SALMONELLA TYPHIMURIUM, Strain/Indicator: TA98, Metabolic Activation: V-79 CELL HOMOGENATE, Method: PREINCUBATION) is “active; positive”; the mutagenic call (Test System: AMES SALMONELLA TYPHIMURIUM, Strain/Indicator: TA1538, Metabolic Activation: NONE, Method: STANDARD PLATE) is “active; positive”; the mutagenic call (Test System: AMES SALMONELLA TYPHIMURIUM, Strain/Indicator: TA1538, Metabolic Activation: RAT, LIVER, S-9, AROCLOR 1254, Method: STANDARD PLATE) is “active; positive”; the mutagenic call (Test System: AMES SALMONELLA TYPHIMURIUM, Strain/Indicator: TA1538, Metabolic Activation: RAT, LIVER, S-9, KC500 OR PHENOBARBITAL, Method: LIQUID SUSPENSION) was “active; positive”; the mutagenic call (Test System: AMES SALMONELLA TYPHIMURIUM, Strain/Indicator: YG1012, Metabolic Activation: NONE, Method: PREINCUBATION) is “active; positive”. For the same compound, the mutagenic call by setting is: (Test System: AMES SALMONELLA TYPHIMURIUM, Strain/Indicator: YG1019, Metabolic Activation: NONE, Method: PREINCUBATION) “active; positive”; (Test System: AMES SALMONELLA TYPHIMURIUM, Strain/Indicator: YG1020, Metabolic Activation: NONE, Method: PREINCUBATION) “active; positive”; (Test System: AMES SALMONELLA TYPHIMURIUM, Strain/Indicator: YG1024, Metabolic Activation: NONE, Method: PREINCUBATION) “active; positive”; (Test System: CHINESE HAMSTER V-79, Strain/Indicator: V-79/6-THIOGUANINE, Metabolic Activation: NONE) “active; positive”; (Test System: CHINESE HAMSTER V-79, Strain/Indicator: V-79/8-AZAGUANINE, Metabolic Activation: NONE, Method: STANDARD PLATE) “active; positive”; (Test System: E. COLI, Strain/Indicator: WP2 UVRA, Metabolic Activation: NONE, Method: STANDARD PLATE) “inactive; negative”. The mutagenic call reads like this: (Test System: UDS GUINEA PIG HEPATOCYTES, Strain/Indicator: THY INCORP, Metabolic Activation: NONE, Method: LIQUID SCINTILLATION COUNTING) “active; positive”; (Test System: UDS HAMSTER HEPATOCYTES, Strain/Indicator: THY INCORP, Metabolic Activation: NONE, Method: LIQUID SCINTILLATION COUNTING) “active; positive”; (Test System: UDS HUMAN CELLS, Strain/Indicator: THY INCORP (NON-S-PHASE), Metabolic Activation: RAT, LIVER, S-9, PHENOBARBITAL, Method: LIQUID SCINTILLATION COUNTING) “active; positive”; (Test System: UDS HUMAN FIBROBLASTS, Strain/Indicator: THY INCORP (NON-S-PHASE), Metabolic Activation: NONE, Method: AUTORADIOGRAPHY) “active; positive”; (Test System: UDS HUMAN FIBROBLASTS, Strain/Indicator: THY INCORP (NON-S-PHASE), Metabolic Activation: NONE, Method: LIQUID SCINTILLATION COUNTING) “active; positive”; (Test System: UDS HUMAN LYMPHOCYTES, Strain/Indicator: THY INCORP (NON-S-PHASE), Metabolic Activation: NONE, Method: LIQUID SCINTILLATION COUNTING) “active; positive”. In addition, the mutagenic call was “active; positive” (Test System: UDS MOUSE HEPATOCYTES, Strain/Indicator: THY INCORP, Metabolic Activation: NONE, Method: LIQUID SCINTILLATION COUNTING); “active; positive” (Test System: UDS RAT HEPATOCYTES, Strain/Indicator: THY INCORP, Metabolic Activation: NONE, Method: LIQUID SCINTILLATION COUNTING); “active; positive” (Test System: UDS RODENT HEPATOCYTES, Strain/Indicator: THY INCORP (NON-S-PHASE), Method: AUTORADIOGRAPHY); “active; positive” (Test System: UDS RODENT HEPATOCYTES, Strain/Indicator: THY INCORP (NON-S-PHASE), Method: LIQUID SCINTILLATION COUNTING).

Turning to `CNC(=O)CN(CCN(CCN(CC(=O)O)CC(=O)NC)CC(=O)O)CC(=O)O`, the mutagenic call is “inactive; negative” (Test System: AMES SALMONELLA TYPHIMURIUM, Strain/Indicator: TA98, Metabolic Activation: NONE); “inactive; negative” (Test System: AMES SALMONELLA TYPHIMURIUM, Strain/Indicator: TA98, Metabolic Activation: RAT, LIVER, S-9, AROCLOR 1254); “inactive; negative” (Test System: AMES SALMONELLA TYPHIMURIUM, Strain/Indicator: TA100, Metabolic Activation: NONE); “inactive; negative” (Test System: AMES SALMONELLA TYPHIMURIUM, Strain/Indicator: TA100, Metabolic Activation: RAT, LIVER, S-9, AROCLOR 1254); “inactive; negative” (Test System: AMES SALMONELLA TYPHIMURIUM, Strain/Indicator: TA1535, Metabolic Activation: NONE); “inactive; negative” (Test System: AMES SALMONELLA TYPHIMURIUM, Strain/Indicator: TA1535, Metabolic Activation: RAT, LIVER, S-9, AROCLOR 1254). The mutagenic call runs as follows: (Test System: AMES SALMONELLA TYPHIMURIUM, Strain/Indicator: TA1537, Metabolic Activation: NONE) “inactive; negative”; (Test System: AMES SALMONELLA TYPHIMURIUM, Strain/Indicator: TA1537, Metabolic Activation: RAT, LIVER, S-9, AROCLOR 1254) “inactive; negative”; (Test System: CHINESE HAMSTER OVARY, Strain/Indicator: CHO-K1-BH4 (HGPRT)/6-THIOGUANINE, Metabolic Activation: NONE) “inactive; negative”; (Test System: CHINESE HAMSTER OVARY, Strain/Indicator: CHO-K1-BH4 (HGPRT)/6-THIOGUANINE, Metabolic Activation: RAT, LIVER, S-9, AROCLOR 1254) “inactive; negative”; (Test System: E.COLI, Strain/Indicator: WP2 UVRA, Metabolic Activation: NONE) “inactive; negative”; (Test System: E.COLI, Strain/Indicator: WP2 UVRA, Metabolic Activation: RAT, LIVER, S-9, AROCLOR 1254) “inactive; negative”.

The record behind these values is PubChem BioAssay AID1259407 (Chemical Carcinogenesis Research Information System (CCRIS), 2018).
